Assay results from EP0173480A2, “The antiviral use of phyllanthostatins” (priority 1984, dated 1986).
≈ marks a conversion by molar mass, not a printed value. Like-named read-outs stand apart in the source and are kept apart here.

Columns and labels:
E.R. = settings: 50 pg of test compound (so in the source)
[1] = test system: Herpes Simplex virus type 2 (HSV-2, strain 35D); experiment: Genital HSV-2 infection of female mice, intravaginal treatment, survival; assay type: in vivo; settings: for mice survived (of 14): study of Table 3; for %S (percent survivors) / MDD (mean day of death): N 14; for deaths: zinc acetate (0.1M)
Vacc. = settings: 50 pg of test compound (so in the source)
Vero cells = experiment: Cytotoxicity of drugs, absorbance at 260 nm of lysed cell monolayers
[2] = as above; settings: monkey, vero cells, drug concentration which reduces the OD260 of lysed cells by 50%
coxsackie A21 = assay type: cell-based; settings: ML cells
[3] = Drug toxicity in non-infected female mice treated intravaginally; assay type: in vivo; settings: compared with saline
Procedure: Where indicated, non-infected mice (5 per group) were treated identically (3 times daily x 5) in order to determine drug toxicity. The groups of mice were weighed at the indicated times.
Non-infected female mice were treated intravaginally with the same drugs, at the same concentrations and with a schedule (3 x daily x 5 days). Animal weights were determined at the time of initiation of treatment (day 0), and again on day 4 (after 12 treatments were given), and again after treatments had been concluded on days 7, 11 and 15. The weights of the groups of mice treated with placebo or the high drug concentrations are shown on Table 3, and the differences in weights in Figure 4. […] Weight gains in mice treated with phyllanthoside (1 mg/ml) were slightly less than that of the above compounds, but by day 15, the mice had the same gain as those treated with phyllanthostatin I, saline or zinc acetate.

[4] = test system: coxsackie B3 virus (Nancy Strain); experiment: Inhibition of virus replication, virus yield in Vero cells; assay type: cell-based
PR-8 = settings: 50 pg of test compound (so in the source)
Coe = experiment: Cell culture antiviral activity, agar-well zones of cytotoxicity / plaque inhibition; settings: 50 pg of test compound (so in the source)
[5] = test system: herpes simplex virus type 2 (HSV-2, MS); experiment: Inhibition of virus replication, virus yield by plaque method; assay type: cell-based; settings: for HSV-2 virus yield: Vero cells
HA-1 = experiment: Cell culture antiviral activity, agar-well zones of cytotoxicity / plaque inhibition; settings: 50 pg of test compound (so in the source)
[6] = test system: Herpes Simplex virus type 2 (HSV-2, strain 35D); experiment: Genital HSV-2 infection of female mice, virus titers in vaginal secretions; assay type: in vivo; settings: for Mean virus titer in swabs of mice which shed virus / Nv/Nt, swabs with virus/total swabs: 8.0 x 10^4 PFU;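 on Mean virus titer in swabs of mice which shed virus: titer expressed as log PFU per ml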
HSV-2 = experiment: Cell culture antiviral activity, agar-well zones of cytotoxicity / plaque inhibition; settings: 50 pg of test compound (so in the source)
[7] = test system: VSV (vesicular stomatitis virus); assay type: cell-based; settings: Vero cells; higher drug concentrations (5 and 50 µg/ml) compared with 0.5
HSV-1 = experiment: Cell culture antiviral activity, agar-well zones of cytotoxicity / plaque inhibition; settings: 50 pg of test compound (so in the source)
[8] = test system: herpes simplex virus type 1 (HSV-1, McIntyre); experiment: Inhibition of virus replication, virus yield by plaque method; assay type: cell-based
[9] = 8.0 x 10^3 PFU/0.1 ml, mg/ml cell empty (1 mg/ml in upper section)
[10] = 8.0 x 10^4 PFU/0.1 ml, 1 mg/ml intravaginally
[11] = higher drug concentrations (5 and 50 µg/ml) compared with 0.5
[12] = therapeutic index with ID50 Vero 72 hrs.
[13] = therapeutic index with ID50 Vero 91 hrs.
[14] = day 1 after HSV-2 inoc., 0.5 mg/ml
[15] = day 1 after HSV-2 inoc., 1 mg/ml
[16] = day 2 after HSV-2 inoc., 0.5 mg/ml
[17] = day 2 after HSV-2 inoc., 1 mg/ml
[18] = day 3 after HSV-2 inoc., 0.5 mg/ml
[19] = day 3 after HSV-2 inoc., 1 mg/ml
[20] = day 4 after HSV-2 inoc., 0.5 mg/ml
[21] = day 4 after HSV-2 inoc., 1 mg/ml
[22] = day 7 after HSV-2 inoc., 0.5 mg/ml
[23] = day 7 after HSV-2 inoc., 1 mg/ml
[24] = 8.0 x 10^3 PFU/0.1 ml, mg/ml cell empty (44 mg/ml in upper section)
[25] = 8.0 x 10^4 PFU/0.1 ml, 44 mg/ml intravaginally

With `CC(=O)O[C@@H]1[C@@H](O)[C@H](O[C@H]2[C@H](OC(=O)[C@H]3CC[C@@H]4[C@H](C3)O[C@@]3(C[C@H](OC(=O)/C=C/c5ccccc5)[C@H](C)CO3)[C@]43CO3)O[C@H](C)[C@@H](O)[C@@H]2OC(C)=O)O[C@H](C)[C@H]1O` [Phyllanthoside] the zone of cytotoxicity (E.R.; first figure of the cell) was 2 (2 - 20-30 mm), the “zone of antiviral activity (viral plaque inhibition)” value (“zone … (viral plaque inhibition)” for short) (E.R.; second figure of the cell) was 4 and the “mice survived (of 14)” value ([1]; 8.0 x 10^3 PFU in 0.1 ml) was 13. The “%S (percent survivors)” value [1, 9] was 93%, the “MDD (mean day of death)” value [1, 9] was 14.0 days and the “mice survived (of 14)” value ([1]; 8.0 x 10^4 PFU in 0.1 ml) was 9. For the same compound, the “%S (percent survivors)” value [1, 10] was 64%, the “MDD (mean day of death)” value [1, 10] was 9.0 days and the “protection of mice from lethal genital HSV-2 infection, summary in words” value ([1]; intravaginally from one hour after inoculation, 3 times daily) was “most effective of the compounds”. For the same compound, the mice survived ([1]; second study, 8.0 x 10^4 PFU in 0.1 ml, 0.5 mg/ml) was 1, the “mice protected from death (of 10)” value ([1]; second study, 8.0 x 10^4 PFU in 0.1 ml, 1 mg/ml) was 7 and the zone of cytotoxicity (Vacc.; first figure of the cell) was 4/4. For the same compound, the “zone … (viral plaque inhibition)” value (Vacc.; second figure of the cell) was 4/4, the “OD260 of lysed cells” value (Vero cells; Vero cells, 0.5 µg per ml, greatly increased OD260 after 72 hours) was “decreased the OD260 during 72 hours” and the “cell growth (OD260 of lysed cells)” value (Vero cells; Vero cells, 1 µg per ml, OD260 increased dramatically at 96 hours) was “cell growth was suppressed to a greater extent during the first 72 hours”. The “ID50 Vero 91 hrs.” value (Vero cells; drug concentration which reduces the OD260 of lysed cells by 50%, table head 91 hrs., b38 96 hours, 5460 min) was 3.568 ug per ml, the CC50 at 72 h ([2]; ID50 Vero 72 hrs., 72 hours) was 1200 µg/mL (≈ 1480 µM) and the CC50 at 91 h ([2]; ID50 Vero 91 hrs., table head 91 hrs., b38 96 hours) was 3.57 µg/mL (≈ 4.44 µM). The “coxsackie A21 virus yield” value (coxsackie A21; 5 µg/ml (below 5 µg per ml)) was “inhibitory for both viruses”, the “coxsackie A21 virus yield” value (coxsackie A21; below 5 µg per ml (i.e., 0.5 or 1), study of b36) was “reduced titers of coxsackie A21” and the “coxsackie A21 virus yield” value (coxsackie A21; [11]) was “further reductions in all virus yields”. The weight gains ([3]; 1 mg/ml intravaginally 3 x daily x 5 days, zinc acetate groups, same gain by day 15) was “slightly less”, the “coxsackie B3 virus yield” value ([4]; 5 µg per ml) was “inhibitory for both viruses” and the “coxsackie B3 virus yield” value ([4]; below 5 µg per ml (i.e., 0.5 or 1)) was “unaffected”. For the same compound, the zone of cytotoxicity (PR-8; first figure of the cell) was 3/3, the “zone … (viral plaque inhibition)” value (PR-8; second figure of the cell) was 3/3 and the zone of cytotoxicity (Coe; first figure of the cell) was 3. The “zone … (viral plaque inhibition)” value (Coe; second figure of the cell) was 0, the “ED90 MS” value ([5]; HSV-2 in Vero cells, drug concentration reducing virus titers by 90%, 1440 min) was 1.4958 µg per ml and the EC90 ([5]; Human alphaherpesvirus 2, Vero, 24 h, read-out: ED90 MS) was 1.5 µg/mL (≈ 1.86 µM). For the same compound, the HSV-2 virus yield ([5]; 0.5 µg/ml) was “most susceptible virus to inhibition”, the HSV-2 virus yield [5, 11] was “further reductions in all virus yields” and the “T - ID50/ED90, MS” value [5, 12] was 0.7989. For the same compound, the “T - ID50/ED90, MS” value [5, 13] was 2.3854, the zone of cytotoxicity (HA-1; first figure of the cell) was 4 and the “zone … (viral plaque inhibition)” value (HA-1; second figure of the cell) was 0. The “mean titer less than placebo treated groups” value ([6]; 0.5 mg/ml, after the first 3 days) was “about 0.6 logs”, the “mean titer less than placebo treated groups” value ([6]; 0.5 mg/ml, first 3 days) was “about 1 log” and the “mean titer less than saline or DMSO-saline treated groups” value ([6]; 1 mg/ml, day 4) was “about 0.6 logs”. The “mean titer less than saline or DMSO-saline treated groups” value ([6]; 1 mg/ml, days 1, 2 and 3) was “about one”, the “Mean virus titer in swabs of mice which shed virus” value (“Mean virus titer in swabs” for short) [6, 14] was 2.46 log PFU/ml and the “Nv/Nt, swabs with virus/total swabs” value [6, 14] was 5/10. For the same compound, the “Nv/Nt, swabs with virus/total swabs” value ([6]; day 1 after HSV-2 inoc., 0.5 mg/ml, listed as phyllanthoside) was 5, the “Mean virus titer in swabs” value [6, 15] was 2.83 log PFU/ml and the “Nv/Nt, swabs with virus/total swabs” value [6, 15] was 2/10. For the same compound, the “Nv/Nt, swabs with virus/total swabs” value ([6]; day 1 after HSV-2 inoc., 1 mg/ml, listed as phyllanthoside) was 2, the “Mean virus titer in swabs” value [6, 16] was 3.45 log PFU/ml and the “Nv/Nt, swabs with virus/total swabs” value [6, 16] was 7/10. For the same compound, the “Mean virus titer in swabs” value [6, 17] was 2.98 log PFU/ml, the “Nv/Nt, swabs with virus/total swabs” value [6, 17] was 3/10 and the “Nv/Nt, swabs with virus/total swabs” value ([6]; day 2 after HSV-2 inoc., 1 mg/ml, listed as phyllanthoside) was 3. The “Mean virus titer in swabs” value [6, 18] was 3.41 log PFU/ml, the “Nv/Nt, swabs with virus/total swabs” value [6, 18] was 8/10 and the “Mean virus titer in swabs” value [6, 19] was 3.11 log PFU/ml. The “Nv/Nt, swabs with virus/total swabs” value [6, 19] was 5/10, the “Nv/Nt, swabs with virus/total swabs” value ([6]; day 3 after HSV-2 inoc., 1 mg/ml, listed as phyllanthoside) was 5 and the “Mean virus titer in swabs” value [6, 20] was 3.73 log PFU/ml. For the same compound, the “Nv/Nt, swabs with virus/total swabs” value [6, 20] was 8/10, the “Mean virus titer in swabs” value [6, 21] was 3.72 log PFU/ml and the “Nv/Nt, swabs with virus/total swabs” value [6, 21] was 4/10. The “Nv/Nt, swabs with virus/total swabs” value ([6]; day 4 after HSV-2 inoc., 1 mg/ml, listed as phyllanthoside) was 4, the “Mean virus titer in swabs” value [6, 22] was 3.98 log PFU/ml and the “Nv/Nt, swabs with virus/total swabs” value [6, 22] was 2/4. The “Mean virus titer in swabs” value [6, 23] was 2.94 log PFU/ml, the “Nv/Nt, swabs with virus/total swabs” value [6, 23] was 3/8 and the zone of cytotoxicity (HSV-2; first figure of the cell) was 3. For the same compound, the “zone … (viral plaque inhibition)” value (HSV-2; second figure of the cell) was 4, the VSV virus yield [7] was “further reductions in all virus yields” and the zone of cytotoxicity (HSV-1; first figure of the cell) was 4/4. For the same compound, the “zone … (viral plaque inhibition)” value (HSV-1; second figure of the cell) was 4/4, the HSV-1 virus yield ([8]; Vero cells, higher drug concentrations (5 and 50 µg/ml) compared with 0.5) was “further reductions in all virus yields” and the “T - ID50/ED90, McIntyre” value [8, 12] was 0.6402. For the same compound, the “T - ID50/ED90, McIntyre” value [8, 13] was 1.9115.
With “zinc acetate [Zn(OAc)2, reference compound]” the “%S (percent survivors)” value [1, 24] was 79%, the “MDD (mean day of death)” value [1, 24] was 3.0 days and the deaths ([1]; 8.0 x 10^3 PFU, two of the three deaths on day 4, probably not virus related) was 21.4%. The “%S (percent survivors)” value [1, 25] was 71%, the “MDD (mean day of death)” value [1, 25] was 8.3 days and the deaths ([1]; 8.0 x 10^4 PFU) was 50%. The “mice protected from lethal infection” value ([1]; second study, 8.0 x 10^4 PFU in 0.1 ml, positive control, concentration not given, 10 mice) was 80%, the weight changes ([3]; zinc acetate intravaginally 3 x daily x 5 days) was “essentially the same” and the “Mean virus titer in swabs” value ([6]; day 1 after HSV-2 inoc., Zn(OAc)2 concentration not given, value in brackets) was “(2.60) log PFU/ml”. For the same compound, the “Nv/Nt, swabs with virus/total swabs” value ([6]; day 1 after HSV-2 inoc., Zn(OAc)2 concentration not printed) was 1/10, the “Nv/Nt, swabs with virus/total swabs” value ([6]; day 1 after HSV-2 inoc., Zn(OAc)2 concentration not printed, listed as zinc acetate) was “One of 10” and the “Nv/Nt, swabs with virus/total swabs” value ([6]; day 2 after HSV-2 inoc., Zn(OAc)2 concentration not given) was 1/10. For the same compound, the “Mean virus titer in swabs” value ([6]; day 2 after HSV-2 inoc., Zn(OAc)2 concentration not given, value in brackets) was “(3.54) log PFU/ml”, the “Nv/Nt, swabs with virus/total swabs” value ([6]; day 3 after HSV-2 inoc., Zn(OAc)2 concentration not given) was 1/10 and the “Mean virus titer in swabs” value ([6]; day 3 after HSV-2 inoc., Zn(OAc)2 concentration not given, value in brackets) was “(3.42) log PFU/ml”. The “Nv/Nt, swabs with virus/total swabs” value ([6]; day 4 after HSV-2 inoc., Zn(OAc)2 concentration not given) was 1/9, the “Mean virus titer in swabs” value ([6]; day 4 after HSV-2 inoc., Zn(OAc)2 concentration not given, value in brackets) was “(4.54) log PFU/ml” and the “Nv/Nt, swabs with virus/total swabs” value ([6]; day 7 after HSV-2 inoc., Zn(OAc)2 concentration not given) was 0/8.
